Results taken from patent publication US20130060013A1, “Compounds useful for treating neurodegenerative disorders” (SATORI PHARMACEUTICALS, INC., priority 2011, published 2013).

How the values were obtained:
Format in all cases: cell-based
Details in all cases: Homo sapiens, compound 5 hours at 37° C., 1% DMSO, percent vehicle fit to 4 parameter curve
Aβ-42 = Aβ-42 level in conditioned media of 2B7 cells (MSD 3-PLEX ELISA)
Method in brief: (§1)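 2B7 cells at confluence were exposed to compound dilutions in medium (1% DMSO final) for 5 h at 37 °C. Conditioned medium, diluted 1:1 in blocking buffer, was assayed by MSD 3-plex electrochemiluminescence ELISA, and levels were read from a seven-point standard curve. IC50 came from a 4-parameter fit of percent-of-vehicle values.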

Aβ-38 = Aβ-38 level in conditioned media of 2B7 cells (MSD 3-PLEX ELISA)
Method in brief: as §1

Aβ-40 = Aβ-40 level in conditioned media of 2B7 cells (MSD 3-PLEX ELISA)
Protocol: Assays were conducted to determine the ability of a Compound of Formula I to modulate […], and Aβ-38.
Human (6E10) Ab 3-PLEX elisa kits were purchased from Meso Scale Discovery Labs, 9328 Gaither Road, Gaithersburg, Md. 20877 (Catalog Number K15148E-3). Plates with capture antibodies were blocked for 1-2 hours at room temperature with 150 μL of the manufactures blocking reagent.
Cultured 2B7 cells in 96 well plate with 250 uL of media per well until confluent;
Prepared serial dilutions of compounds in DMSO at 100× the final desired concentration;
Washed wells with 2B7 cells 1× with 250 uL of media;
Diluted DMSO stocks 1:100 into media:
Added 250 μL of media containing compounds (1% DMSO) to wells with 2B7 cells for 5 hours at 37° C.
Diluted conditioned media: 1 part media with 1% DMSO and 1 part blocking buffer;
150 μL of the 250 μL of conditioned media were used.
Standard Curve Sample Prep:
Prepared per manufacturer's protocol (see above)
Seven point standard curve samples were prepared that contained Aβ-42, Aβ-40, and Aβ-38. The highest concentration of Aβ-42 and Aβ-38 was 3,000 pg/mL and the highest concentration of Aβ-40 was 10,000 pg/mL. Subsequent serial dilutions were 1:3 and the final composition of each sample was 1 part blocking buffer and 1 part cell medium containing 1% DMSO.
Overnight Sample Incubation:
Blocked plates are washed 5× with MSD wash buffer with a plate washer
25 uL of detection antibody and blocker G reagent in MSD blocking solution is added
25 uL of samples (1 part conditioned media containing 1% DMSO and 1 part MSD blocking buffer) are then added.
plates are incubated overnight at 4 degrees C. or 2 hours at room temp
Wash wells 5× with MSD wash buffer
Added 150 μL 2×MSD read buffer
A-Beta peptide levels for each peptide are calculated from the standard curve using the MSD software provided with the MSD 2400 Imager. Percent vehicle values for each compound dosage were then calculated and fit to a 4 parameter curve generating IC50 values.

Compound | IC50 (Aβ-42) | IC50 (Aβ-38) | IC50 (Aβ-40)
CO[C@@H]([C@H]1C[C@@H](C)[C@H]2[C@H](O1)[C@H](O)[C@@]1(C)[C@@H]3CC[C@H]4C(C)(C)[C@@H](O[C@H]5CN(CCN(C)C)CCO5)CCC45C[C@@]35CC[C@]21C)C(C)(C)O (stereo partly drawn) | < 1000 nM | 1000 to 10000 nM | > 10000 nM
CCO[C@@H]([C@H]1C[C@@H](C)[C@H]2[C@H](O1)[C@H](O)[C@@]1(C)[C@@H]3CC[C@H]4C(C)(C)[C@@H](OC(=O)[C@@H]5C[C@@H](O)CN5C)CCC45C[C@@]35CC[C@]21C)C(C)(C)O (stereo partly drawn) | < 1000 nM | < 1000 nM | 1000 to 10000 nM
CCO[C@@H]([C@H]1C[C@@H](C)[C@H]2[C@H](O1)[C@H](O)[C@@]1(C)[C@@H]3CC[C@H]4C(C)(C)[C@@H](O[C@H]5CN(C(C)(C)CO)CCO5)CCC45C[C@@]35CC[C@]21C)C(C)(C)O (stereo partly drawn) | < 1000 nM | < 1000 nM | 1000 to 10000 nM
CCO[C@@H]([C@H]1C[C@@H](C)[C@H]2[C@H](O1)[C@H](O)[C@@]1(C)[C@@H]3CC[C@H]4C(C)(C)C(O[C@H]5CN(CCCNCCCOCCOCCOCCCNC(=O)CCCCC6SC[C@@H]7NC(=O)N[C@H]67)CCO5)CC[C@@]45CC35CC[C@]21C)C(C)(C)O (stereo partly drawn) | < 1000 nM | < 1000 nM | 1000 to 10000 nM
CCO[C@@H]([C@H]1C[C@@H](C)[C@H]2[C@H](O1)[C@H](O)[C@@]1(C)[C@@H]3CC[C@H]4C(C)(C)[C@@H](O[C@H]5CN([C@@H](C)CO)CCO5)CCC45C[C@@]35CC[C@]21C)C(C)(C)O (stereo partly drawn) | < 1000 nM | < 1000 nM | 1000 to 10000 nM
CCO[C@@H]([C@H]1C[C@@H](C)[C@H]2[C@H](O1)[C@H](O)[C@@]1(C)[C@@H]3CC[C@H]4C(C)(C)[C@@H](OC(=O)[C@H]5COCCN5CCOC)CCC45C[C@@]35CC[C@]21C)C(C)(C)O (stereo partly drawn) | < 1000 nM | < 1000 nM | 1000 to 10000 nM
CCO[C@@H]([C@H]1C[C@@H](C)[C@H]2[C@H](O1)[C@H](O)[C@@]1(C)[C@@H]3CC[C@H]4C(C)(C)[C@@H](O[C@H]5CN([C@H](C)CO)CCO5)CC[C@@]45C[C@@]35CC[C@]21C)C(C)(C)O | < 1000 nM | 1000 to 10000 nM | 1000 to 10000 nM
CO[C@@H](C1C[C@@H](C)[C@H]2C(O1)[C@H](O)[C@@]1(C)C3CC[C@H]4C(C)(C)[C@@H](O[C@H]5CNCCO5)CC[C@@]45CC35CC[C@]21C)C(C)(C)O (stereo partly drawn) | < 1000 nM | < 1000 nM | 1000 to 10000 nM
CO[C@@H]([C@H]1C[C@@H](C)[C@H]2[C@H](O1)[C@H](O)[C@@]1(C)[C@@H]3CC[C@H]4C(C)(C)[C@@H](OC5CN(C6CN(C)C6)CCO5)CCC45C[C@@]35CC[C@]21C)C(C)(C)O (stereo partly drawn) | < 1000 nM | < 1000 nM | 1000 to 10000 nM
CCO[C@@H]([C@H]1C[C@@H](C)[C@H]2[C@H](O1)[C@H](O)[C@@]1(C)[C@@H]3CC[C@H]4C(C)(C)[C@@H](OC(=O)[C@H]5COCCN5C)CCC45C[C@@]35CC[C@]21C)C(C)(C)O (stereo partly drawn) | < 1000 nM | < 1000 nM | > 10000 nM
CCO[C@@H]([C@H]1C[C@@H](C)[C@H]2[C@H](O1)[C@H](OCC)[C@@]1(C)[C@@H]3CC[C@H]4C(C)(C)[C@@H](O)CCC45C[C@@]35CC[C@]21C)C(C)(C)O (stereo partly drawn) | 1000 to 10000 nM | 1000 to 10000 nM | 1000 to 10000 nM
CCO[C@@H]([C@H]1C[C@@H](C)[C@H]2[C@H](O1)[C@H](O)[C@@]1(C)[C@@H]3CC[C@H]4C(C)(C)[C@@H](O[C@H]5CN(c6cncc(F)c6)CCO5)CCC45C[C@@]35CC[C@]21C)C(C)(C)C (stereo partly drawn) | 1000 to 10000 nM | 1000 to 10000 nM | > 10000 nM
CCO[C@@H]([C@H]1C[C@@H](C)[C@H]2[C@H](O1)[C@H](O)[C@@]1(C)[C@@H]3CC[C@H]4C(C)(C)[C@@H](O[C@H]5CN(C(C)(C)COC)CCO5)CCC45C[C@@]35CC[C@]21C)C(C)(C)O (stereo partly drawn) | < 1000 nM | < 1000 nM | > 10000 nM
CCO[C@@H]([C@H]1C[C@@H](C)[C@H]2[C@H](O1)[C@H](O)[C@@]1(C)[C@@H]3CC[C@H]4C(C)(C)[C@@H](O[C@H]5CN(C6CN(C(C)=O)C6)CCO5)CCC45C[C@@]35CC[C@]21C)C(C)(C)O (stereo partly drawn) | < 1000 nM | 1000 to 10000 nM | 1000 to 10000 nM
CCO[C@@H](C1C[C@@H](C)[C@H]2C(O1)[C@H](O)[C@@]1(C)C3CC[C@H]4C(C)(C)[C@@H](O[C@H]5CN(CC(C)(C)N6CCOCC6)CCO5)CCC45C[C@@]35CC[C@]21C)C(C)(C)O (stereo partly drawn) | < 1000 nM | < 1000 nM | 1000 to 10000 nM
CCO[C@@H]([C@H]1C[C@@H](C)[C@H]2[C@H](O1)[C@H](O)[C@@]1(C)[C@@H]3CC[C@H]4C(C)(C)[C@@H](O[C@H]5CN(CC6CN(C(C)=O)C6)CCO5)CCC45C[C@@]35CC[C@]21C)C(C)(C)O (stereo partly drawn) | < 1000 nM | 1000 to 10000 nM | 1000 to 10000 nM
CC(C)[C@@H](OC(=O)N1CCC1)[C@H]1C[C@@H](C)[C@H]2[C@H](O1)[C@H](O)[C@@]1(C)[C@@H]3CC[C@H]4C(C)(C)[C@@H](O[C@H]5CN(C(=O)CN6CCC6)CCO5)CCC45C[C@@]35CC[C@]21C (stereo partly drawn) | < 1000 nM | < 1000 nM | 1000 to 10000 nM
CCO[C@@H]([C@H]1C[C@@H](C)[C@H]2[C@H](O1)[C@H](O)[C@@]1(C)[C@@H]3CC[C@H]4C(C)(C)[C@@H](O[C@H]5CN([C@H](C)CF)CCO5)CCC45C[C@@]35CC[C@]21C)C(C)(C)O (stereo partly drawn) | 1000 to 10000 nM | 1000 to 10000 nM | > 10000 nM
CCO[C@@H]([C@H]1C[C@@H](C)[C@H]2[C@H](O1)[C@H](O)[C@@]1(C)[C@@H]3CC[C@H]4C(C)(C)[C@@H](OC(=O)[C@H]5CCCN5C)CCC45C[C@@]35CC[C@]21C)C(C)(C)O (stereo partly drawn) | < 1000 nM | < 1000 nM | 1000 to 10000 nM
CCO[C@@H]([C@H]1C[C@@H](C)[C@H]2[C@H](O1)[C@H](O)[C@@]1(C)[C@@H]3CC[C@H]4C(C)(C)[C@@H](OC(=O)C5CCN5)CCC45C[C@@]35CC[C@]21C)C(C)(C)O (stereo partly drawn) | < 1000 nM | < 1000 nM | 1000 to 10000 nM
CO[C@@H]([C@H]1C[C@@H](C)[C@H]2[C@H](O1)[C@H](O)[C@@]1(C)[C@@H]3CC[C@H]4C(C)(C)[C@@H](OC5CN(C6CCN(C)C6=O)CCO5)CCC45C[C@@]35CC[C@]21C)C(C)(C)O (stereo partly drawn) | < 1000 nM | < 1000 nM | > 10000 nM
CCO[C@@H](C1C[C@@H](C)[C@H]2C(O1)[C@H](O)[C@@]1(C)C3CC[C@H]4C(C)(C)[C@@H](O[C@H]5CN(C(=O)CC6CN(C)C6)CCO5)CCC45C[C@@]35CC[C@]21C)C(C)(C)O (stereo partly drawn) | < 1000 nM | < 1000 nM | 1000 to 10000 nM
CCO[C@@H]([C@H]1C[C@@H](C)[C@H]2[C@H](O1)[C@H](O)[C@@]1(C)[C@@H]3CC[C@H]4C(C)(C)C(O[C@H]5CN(CCNC(=O)CCOCCOCCNC(=O)CCCCC6SC[C@@H]7NC(=O)N[C@H]67)CCO5)CC[C@@]45CC35CC[C@]21C)C(C)(C)O (stereo partly drawn) | 1000 to 10000 nM | 1000 to 10000 nM | > 10000 nM
